Test system: human breast cancer MDA-MB-436 cells
Assay: In vivo pharmacodynamic study, subcutaneous xenograft tumor model of MDA-MB-436 cells
Parameters: species or system BALB/c nude mouse
Settings: for TGI: day 27; for Tumor volume (day 27): mean ± SEM
Source text: Experimental Example 9: In Vivo Pharmacodynamic Study of Compounds in Subcutaneous Xenograft Tumor BALB/c Nude Mouse Model of Human Breast Cancer MDA-MB-436 Cells
Experimental objective: to study the efficacy in vivo of the test compound in subcutaneous xenograft tumor BALB/c nude mouse model of human breast cancer MDA-MB-436 cells.
Experimental materials: week age and body weight: female BALB/c nude mice, 6-8 weeks old, 18-22 g of body weight. The experiment started after 3-7-days of adaptive feeding. The animal information card of each cage provides the following information about the animals: number, sex, strain, receiving date, administration regime, experiment number, group and starting date of the experiment. All the cages, padding and drinking water were sterilized before use. The cages, feed and drinking water were changed twice a week. The experimental animals were identified with ear tags. Test samples: Example 24_A and Example 25_A. All the test samples were prepared with 10% DMSO+90% (20% HP-β-CD) as vehicle, and the blank control group was administered with the vehicle alone.
1. Cell culturing. Human breast cancer MDA-MB-436 cells (ATCC, Manassas, Va., catalog No.: HTB-130) were cultured in an RPMI-1640 culture medium containing 10% fetal bovine serum and 1% Anti-anti through in vitro monolayer culture in an incubator at 37° C./5% CO2. The cells were digested with trypsin-EDTA twice a week for passaging as per conventional practice. At a cell saturation of 80%-90% and a required number, the cells were collected, counted and inoculated. 2. Tumor cell inoculation (tumor inoculation). 0.2 mL (1×10^7 cells) of MDA-MB-436 cells (along with matrigel in a volume ratio of 1:1) was subcutaneously inoculated on the right back of each mouse, and the mice were randomly grouped when the average tumor volume was 318 mm^3. 3. Daily observation of experimental animals: animals were monitored daily for health and death, and routine examinations include observation of the effect of tumor growth and drug treatment on the daily performance of the animals, such as behavioral activities, food and water intake, weight changes, appearance, or other abnormal conditions. 4. Tumor measurements and experimental indices: the experimental indices were to investigate whether the tumor growth was inhibited, the tumor growth was delayed or the tumor was cured. Tumor diameters were measured twice weekly using a vernier caliper. The tumor volume was calculated using the following formula: V=0.5a×b^2, where a and b represent the long diameter and short diameter of the tumor, respectively. The anti-tumor therapeutic effect of the compound was evaluated by TGI (%) or relative tumor proliferation rate T/C (%). TGI (%) refers to the rate of tumor growth inhibition. Calculation of TGI (%): TGI (%)=[(1−(average tumor volume at the end of administration in a treatment group−average tumor volume at the start of administration of the treatment group))/(average tumor volume at the end of treatment of the solvent control group−average tumor volume at the start of treatment of the solvent control group)]×100%. The calculation formula for relative tumor proliferation rate T/C (%) was as follows: T/C (%)=TRTV/CRTV×100% (TRTV: RTV of treatment group; CRTV: RTV of negative control group). Relative tumor volume (RTV) was calculated based on the results of tumor measurement. The calculation formula was: RTV=Vt/V0, wherein V0 was the average tumor volume measured at the time of grouping and administration (i.e., d0), Vt was the average tumor volume at a certain measurement, and the data of TRTV and CRTV used were obtained on the same day. 5. Statistical analysis: including mean and standard error of mean (SEM) of tumor volume at each time point for each group. […] The experimental data were analyzed using a one-way ANOVA method and a Games-Howell method. All data analysis was performed with SPSS 17.0. p<0.05 was defined as a significant difference.

`CC1(c2ccc(-c3[nH]c4cc(F)cc5c4c3CONC5=O)cc2)CCCN1` (stereo not drawn) [Example 25_A] was tested. Which TGI (12.5 mg/kg PO QD × 28 days) did it give?
Its TGI is 95.34%.

What about the “Tumor volume (day 27)” value (12.5 mg/kg PO QD × 28 days) of the same compound?
Its value is 377 ± 149 mm^3.

And the TGI (25 mg/kg PO QD × 28 days)?
The TGI was 114.69%.

And the “Tumor volume (day 27)” value (25 mg/kg PO QD × 28 days)?
Its value is 132 ± 32 mm^3.

What about the TGI (50 mg/kg PO QD × 28 days) of the same compound?
Its TGI is 117.86%.

What about the “Tumor volume (day 27)” value (50 mg/kg PO QD × 28 days) of the same compound?
Its value is 91 ± 14 mm^3.

Reference: patent US20220144850A1, “INDOLO HEPTAMYL OXIME ANALOGUE AS PARP INHIBITOR” (Chia Tai Tianqing Pharmaceutical Group Co., Ltd., priority 2019, published 2022)
